Experimental data reported in paper PMC7614775 (Nature chemical biology, 2022).

Experiments:
JAK1_C817 = JAK1_C817 (Homo sapiens, UniProt P23458); experiment: Targeted MS-ABPP target engagement (TE50) in human cell lysates; type: binding
[1] = system: IFNα-stimulated STAT1 phosphorylation; experiment: Phospho-STAT western blot in 22Rv1 cells expressing JAK1 variants; type: cell-based, human; settings: cells expressing WT-, C810A-, or C817A-JAK1; 2 µM, 2 h
[2] = system: IL-6-stimulated STAT3 phosphorylation; experiment: Phospho-STAT western blot in human PBMCs; type: cell-based; settings: compound 2 h, IL-6 25 ng/mL 30 min
[3] = system: IL-2-stimulated STAT5 phosphorylation; experiment: Phospho-STAT western blot in human PBMCs; type: cell-based; settings: compound 2 h, IL-2 20 U/mL 15 min
[4] = system: αCD3/αCD28-stimulated primary human T cells (CD25, CD69); experiment: T-cell activation analysis by flow cytometry; type: cell-based; settings: αCD3/αCD28 co-stimulation, 24 h
[5] = system: IFNγ-stimulated STAT1 phosphorylation; experiment: Phospho-STAT western blot in 22Rv1 cells expressing JAK1 variants; type: cell-based, human; settings: WT-JAK1 transfected 22Rv1 cells; 1 μM, 2 h
primary human T cells = experiment: T-cell viability (Near IR Live/Dead stain); type: cell-based; settings: 24 h
[6] = system: IL-6-stimulated STAT3 phosphorylation; experiment: Phospho-STAT western blot in mouse splenocytes; type: cell-based; settings: WT mouse splenocytes
[7] = system: IFNα-stimulated STAT1 phosphorylation; experiment: Phospho-STAT western blot in human PBMCs; type: cell-based; settings: compound 2 h, IFNα 100 ng/mL 30 min
[8] = system: IFNα-stimulated STAT1 phosphorylation; experiment: HTRF phospho-STAT1 assay in human PBMCs; type: cell-based; settings: compound 2 h, IFNα 100 ng/mL 30 min
JAK1_C816 = JAK1_C816 (Mus musculus, UniProt P52332); experiment: In vivo target engagement in spleen by targeted MS-ABPP; settings: mice, s.c. 25 or 50 mg/kg, two doses over an 8 h period
Sequence of JAK1_C816 (P52332 whole entry): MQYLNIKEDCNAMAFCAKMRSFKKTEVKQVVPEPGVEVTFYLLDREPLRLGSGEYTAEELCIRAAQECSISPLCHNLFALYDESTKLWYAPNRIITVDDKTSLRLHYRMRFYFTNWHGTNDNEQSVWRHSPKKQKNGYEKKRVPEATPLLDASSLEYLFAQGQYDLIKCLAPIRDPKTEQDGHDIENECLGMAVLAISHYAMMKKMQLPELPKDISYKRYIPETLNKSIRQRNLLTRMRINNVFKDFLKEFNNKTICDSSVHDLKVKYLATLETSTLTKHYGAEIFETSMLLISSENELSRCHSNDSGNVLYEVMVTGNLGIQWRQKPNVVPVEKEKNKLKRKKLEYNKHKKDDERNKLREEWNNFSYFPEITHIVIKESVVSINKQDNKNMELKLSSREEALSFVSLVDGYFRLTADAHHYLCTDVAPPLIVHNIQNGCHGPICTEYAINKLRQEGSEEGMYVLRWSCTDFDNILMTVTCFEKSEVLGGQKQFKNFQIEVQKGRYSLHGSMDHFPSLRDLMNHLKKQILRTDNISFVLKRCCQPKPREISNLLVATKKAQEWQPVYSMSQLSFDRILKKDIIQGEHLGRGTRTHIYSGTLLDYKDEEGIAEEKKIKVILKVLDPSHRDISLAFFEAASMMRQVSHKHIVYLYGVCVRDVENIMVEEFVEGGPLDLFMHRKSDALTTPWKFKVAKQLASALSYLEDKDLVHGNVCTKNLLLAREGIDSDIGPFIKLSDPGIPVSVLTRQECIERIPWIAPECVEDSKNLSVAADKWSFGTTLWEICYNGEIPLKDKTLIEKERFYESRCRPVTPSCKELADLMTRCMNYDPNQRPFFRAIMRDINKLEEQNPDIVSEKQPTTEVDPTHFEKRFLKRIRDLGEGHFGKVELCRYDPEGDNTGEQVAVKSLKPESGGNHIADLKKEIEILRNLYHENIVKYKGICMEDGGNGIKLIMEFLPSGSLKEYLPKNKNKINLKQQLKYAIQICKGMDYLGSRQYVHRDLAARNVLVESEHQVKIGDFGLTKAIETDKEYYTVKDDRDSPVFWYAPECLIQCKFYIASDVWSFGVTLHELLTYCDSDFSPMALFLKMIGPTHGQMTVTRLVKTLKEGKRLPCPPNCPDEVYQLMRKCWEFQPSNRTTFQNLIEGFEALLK

[9] = system: IL-2-dependent STAT5 phosphorylation; experiment: Ex vivo phospho-STAT assay, splenocytes of treated mice; type: in vivo, mouse; settings: splenocytes of mice given 25 mg/kg s.c., 2 × 4 h
IL-6-STAT3 signaling = experiment: as above; type: in vivo, mouse; settings: splenocytes of mice given 25 mg/kg s.c., 2 × 4 h
[10] = system: IFNα-dependent STAT1 phosphorylation; experiment: Phospho-STAT western blot in mouse splenocytes; type: cell-based; settings: 0.01–0.1 µM
[11] = system: IL-2-dependent STAT5 phosphorylation; experiment: Phospho-STAT western blot in mouse splenocytes; type: cell-based; settings: 0.01–0.1 µM
[12] = system: GM-CSF stimulated STAT5 phosphorylation (JAK2-dependent); experiment: Phospho-STAT western blot in human PBMCs; type: cell-based; settings: compound 2 h, GM-CSF 15 min
IL-12-STAT4 signaling = experiment: Phospho-STAT western blot in mouse splenocytes; type: cell-based
[13] = In vivo pharmacokinetic analysis; settings: male, CD-1 (ICR), mouse, plasma
GM-CSF-STAT5 signaling [14] = experiment: Ex vivo phospho-STAT assay, splenocytes of treated mice; type: in vivo, mouse; settings: splenocytes of mice given 25 mg/kg s.c., 2 × 4 h
[15] = system: IL-12-STAT4 signaling (TYK2/JAK2-dependent); experiment: Phospho-STAT western blot in human PBMC-derived T-blasts; type: cell-based; settings: compound 2 h, IL-12 12.5 ng/mL 15 min
[16] = system: IFNα-stimulated STAT1 phosphorylation; experiment: Ex vivo phospho-STAT assay, splenocytes of treated mice; type: in vivo, mouse; settings: splenocytes of mice given 25 mg/kg s.c., 2 × 4 h
GM-CSF-STAT5 signaling [17] = experiment: Phospho-STAT western blot in mouse splenocytes; type: cell-based
TYK2 (C838) = settings: human T cells in situ, 50 µM, 1 h; cited from earlier work
JAK1 (C817) = settings: human T cells in situ, 50 µM, 1 h; cited from earlier work
TYK2_C838 = TYK2_C838 (Homo sapiens, UniProt P29597); experiment: Targeted MS-ABPP target engagement (TE50) in human cell lysates; type: binding; settings: read-out: target engagement value (TE50), TYK2_C838, 1 h, in vitro
Sequence of TYK2_C838 (P29597 whole entry): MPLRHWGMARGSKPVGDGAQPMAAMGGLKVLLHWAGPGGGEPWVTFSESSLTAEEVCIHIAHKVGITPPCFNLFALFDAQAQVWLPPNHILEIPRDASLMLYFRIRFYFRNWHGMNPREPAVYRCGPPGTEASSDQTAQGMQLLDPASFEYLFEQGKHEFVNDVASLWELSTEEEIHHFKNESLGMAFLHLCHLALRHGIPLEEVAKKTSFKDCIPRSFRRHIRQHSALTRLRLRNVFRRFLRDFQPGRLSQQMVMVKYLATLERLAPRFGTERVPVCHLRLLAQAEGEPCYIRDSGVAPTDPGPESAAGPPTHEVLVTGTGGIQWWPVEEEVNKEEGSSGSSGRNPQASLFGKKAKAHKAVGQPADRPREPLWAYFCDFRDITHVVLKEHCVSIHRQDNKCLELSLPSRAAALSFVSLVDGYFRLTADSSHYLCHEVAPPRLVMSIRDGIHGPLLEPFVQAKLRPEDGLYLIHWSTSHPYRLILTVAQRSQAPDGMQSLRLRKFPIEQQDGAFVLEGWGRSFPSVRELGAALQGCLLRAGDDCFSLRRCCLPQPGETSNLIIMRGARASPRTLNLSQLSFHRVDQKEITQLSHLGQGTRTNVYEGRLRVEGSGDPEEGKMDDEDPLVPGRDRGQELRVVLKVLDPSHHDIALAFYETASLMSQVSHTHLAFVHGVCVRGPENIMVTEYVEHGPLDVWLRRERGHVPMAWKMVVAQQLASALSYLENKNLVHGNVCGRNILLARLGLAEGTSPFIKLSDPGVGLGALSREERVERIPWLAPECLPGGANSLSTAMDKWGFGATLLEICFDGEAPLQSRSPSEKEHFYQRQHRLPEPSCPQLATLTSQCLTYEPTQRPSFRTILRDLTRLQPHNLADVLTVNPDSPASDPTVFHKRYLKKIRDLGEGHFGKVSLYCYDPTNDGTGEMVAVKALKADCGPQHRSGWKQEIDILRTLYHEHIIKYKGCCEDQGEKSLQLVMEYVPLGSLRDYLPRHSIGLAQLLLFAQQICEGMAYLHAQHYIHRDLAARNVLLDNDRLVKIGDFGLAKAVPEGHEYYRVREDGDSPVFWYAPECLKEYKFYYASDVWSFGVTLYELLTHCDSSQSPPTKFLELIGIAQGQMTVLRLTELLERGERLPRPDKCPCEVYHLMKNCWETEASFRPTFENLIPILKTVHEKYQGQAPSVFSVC

[18] = system: IFNα-stimulated STAT1 phosphorylation (TYK2-dependent); experiment: Phospho-STAT western blot in 22Rv1 cells expressing TYK2 variants; type: cell-based, human; settings: 2 h
[19] = biological target: JAK1 trans-phosphorylation (Homo sapiens, UniProt P23458); experiment: Trans-phosphorylation assay in 22Rv1 cells; type: cell-based; settings: cells expressing active WT-JAK1-FLAG; 2 µM, 2 h
Sequence of JAK1 trans-phosphorylation (P23458 whole entry): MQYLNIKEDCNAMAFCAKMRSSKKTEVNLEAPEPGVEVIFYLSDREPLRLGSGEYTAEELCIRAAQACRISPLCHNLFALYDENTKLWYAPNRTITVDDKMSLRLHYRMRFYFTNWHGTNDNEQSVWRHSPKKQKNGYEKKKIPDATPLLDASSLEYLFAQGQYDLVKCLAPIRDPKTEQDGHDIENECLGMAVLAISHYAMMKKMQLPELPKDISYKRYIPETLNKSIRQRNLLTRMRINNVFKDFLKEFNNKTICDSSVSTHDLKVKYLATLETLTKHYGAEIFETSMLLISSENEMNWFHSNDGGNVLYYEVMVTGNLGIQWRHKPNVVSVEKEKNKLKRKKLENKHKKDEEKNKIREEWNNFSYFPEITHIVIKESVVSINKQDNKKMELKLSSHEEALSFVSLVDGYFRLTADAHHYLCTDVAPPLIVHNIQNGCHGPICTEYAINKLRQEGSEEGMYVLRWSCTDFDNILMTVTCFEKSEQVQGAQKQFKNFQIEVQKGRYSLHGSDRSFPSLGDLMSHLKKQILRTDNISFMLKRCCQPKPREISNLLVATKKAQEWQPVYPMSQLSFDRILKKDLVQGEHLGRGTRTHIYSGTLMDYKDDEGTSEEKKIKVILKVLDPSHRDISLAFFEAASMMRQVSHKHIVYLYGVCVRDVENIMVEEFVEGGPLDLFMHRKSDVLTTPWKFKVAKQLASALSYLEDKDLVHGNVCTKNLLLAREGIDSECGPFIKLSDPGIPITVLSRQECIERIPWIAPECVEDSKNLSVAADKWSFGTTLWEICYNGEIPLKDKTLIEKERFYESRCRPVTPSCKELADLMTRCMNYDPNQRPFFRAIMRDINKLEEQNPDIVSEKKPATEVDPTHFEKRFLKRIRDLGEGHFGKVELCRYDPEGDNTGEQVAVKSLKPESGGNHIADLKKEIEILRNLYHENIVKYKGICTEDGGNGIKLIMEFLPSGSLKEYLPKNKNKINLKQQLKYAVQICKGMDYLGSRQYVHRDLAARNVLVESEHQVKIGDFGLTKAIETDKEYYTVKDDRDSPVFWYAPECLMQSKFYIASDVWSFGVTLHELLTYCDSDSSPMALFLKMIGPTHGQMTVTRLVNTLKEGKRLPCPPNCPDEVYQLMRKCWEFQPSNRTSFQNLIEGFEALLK

[20] = biological target: JAK1 phosphorylation (pJAK1; Y1034/Y1035) (Homo sapiens, UniProt P23458); experiment: JAK1 phosphorylation western blot in 22Rv1 cells expressing JAK1 variants; type: cell-based; settings: 22Rv1 cells transfected with WT or C817A-JAK1; independent of JAK1_C817
Sequence of JAK1 phosphorylation (pJAK1; Y1034/Y1035) (P23458 whole entry): as above

[21] = system: recombinant JAK1 (WT, C810A, C817A); experiment: Gel-based ABPP in 22Rv1 cells; type: binding, human; settings: 0.1 μM, 2 h, in situ
[22] = biological target: recombinant TYK2 (WT, C838A) (Homo sapiens, UniProt P29597, C838A); experiment: Gel-based ABPP in 22Rv1 cells; type: binding; settings: 0.1 μM, 2 h, in situ
Sequence of recombinant TYK2 (WT, C838A) (Homo sapiens, UniProt P29597, C838A) (P29597 whole entry C838A): as the sequence (P29597 whole entry) above, with C838A counted along it

[23] = biological target: recombinant TYK2 (WT, C838A) (Homo sapiens, UniProt P29597); experiment: Gel-based ABPP in 22Rv1 cells; type: binding; settings: 0.1 μM, 2 h, in situ
Sequence of recombinant TYK2 (WT, C838A) (Homo sapiens, UniProt P29597) (P29597 whole entry C838A): as the sequence (P29597 whole entry) above, with C838A counted along it

Sequence of JAK1_C817 (P23458 whole entry): as the sequence (P23458 whole entry) above

CS(=O)(=O)N1CC[C@@H](C#CC(=O)N2CCC[C@H](c3ccc(Cl)c(Cl)c3)C2)C1 [5b]
change of TE50 with preincubation time (JAK1_C817; Jurkat T-cell lysate, 10, 30 and 60 minutes): time-dependent decreases | potency compared with the corresponding diastereomers (5c and 5d) (JAK1_C817; TE50 and pSTAT pIC50): substantially more potent

C[C@@H]1CCN(C(=O)CC#N)C[C@@H]1N(C)c1ncnc2[nH]ccc12 [tofacitinib, reference compound]
effect on IFNα-stimulated pSTAT1 [1]: equivalently blocked | effect on IL-6-pSTAT3 [2]: blocked | effect on IL-2-pSTAT5 [3]: blocked | early-stage activation marker CD69 [4]: Neither compound affected | effect on IFNγ-stimulated STAT1 phosphorylation [5]: completely inhibited | T-cell viability (primary human T cells): Neither compound affected | effect on IL-6-stimulated STAT3 phosphorylation [6]: suppressed | effect on IFNα-pSTAT1 [7]: blocked

CC#CC(=O)N1CCCC(c2ccc(Cl)cc2)C1 (stereo not drawn) [compound 1]
target engagement value (TE50), JAK1_C817 (JAK1_C817; 1 h compound treatment of human PBMC or Jurkat cell proteome): ~two-fold less active | IC50, IFNα-stimulated STAT1 phosphorylation (HTRF) [8]: ~two-fold less active

CS(=O)(=O)N1CCC(C#CC(=O)N2CCCC(c3ccc(Cl)c(Cl)c3)C2)C1 (stereo not drawn) [compound 5]
engagement of JAK1_C816 in spleen (JAK1_C816): 75% | IL-2-dependent STAT5 phosphorylation vs vehicle-treated mice [9]: not substantially altered | IL-6-STAT3 signaling vs vehicle-treated mice (IL-6-STAT3 signaling): unaffected | effect on IFNα-dependent STAT1 phosphorylation [10]: inhibited | effect on IL-6-pSTAT3 [2]: potently inhibited | effect on IL-2-dependent STAT5 phosphorylation [11]: inhibited | effect on IL-2-pSTAT5 [3]: potently inhibited | effect on GM-CSF stimulated STAT5 phosphorylation [12]: sparing | effect on IL-12-STAT4 signaling (IL-12-STAT4 signaling): sparing | effect on IFNα-pSTAT1 [7]: potently inhibited | AUC(0-t) ([13]; iv, 1 mg/kg): 149 ng·h/mL | Cmax ([13]; iv, 1 mg/kg): 1610 ng/mL | clearance ([13]; iv, 1 mg/kg): 112 mL/min/kg | half-life ([13]; iv, 1 mg/kg): 9.18 min | AUC(0-t) ([13]; sc, 25 mg/kg): 2930 ng·h/mL | Cmax ([13]; sc, 25 mg/kg): 3380 ng/mL | bioavailability ([13]; sc, 25 mg/kg): 78.3% | half-life ([13]; sc, 25 mg/kg): 21.6 min | GM-CSF-STAT5 signaling vs vehicle-treated mice (GM-CSF-STAT5 signaling [14]): unaffected | effect on IL-12-STAT4 signaling [15]: sparing | IFNα-stimulated STAT1 phosphorylation vs vehicle-treated mice [16]: substantial impairments | effect on GM-CSF-STAT5 signaling (GM-CSF-STAT5 signaling [17]): sparing

COc1ccc2c(c1)CCCN2C(=O)CCl [KB02]
engagement of TYK2 C838 (TYK2 (C838)): substantially engaged | engagement of JAK1 C817 (JAK1 (C817)): substantially engaged

C=CC(=O)N(c1ccccc1)c1ccc(Br)cc1 [KB05]
engagement of TYK2 C838 (TYK2 (C838)): substantially engaged | engagement of JAK1 C817 (JAK1 (C817)): substantially engaged

CC#CC(=O)N1CCCC(c2ccc(Cl)cc2)C1 (single isomer, unassigned; (-)) [(−)-1a]
IC50 (JAK1_C817; read-out: target engagement value (TE50), JAK1_C817, 1 h compound treatment of human PBMC or Jurkat cell proteome): 2100 nM | IC50 (TYK2_C838): 45000 nM | IC50 ([8]; read-out: IC50, IFNα-stimulated STAT1 phosphorylation (HTRF)): 1400 nM

CC[C@@H]1CN(C(=O)NCC(F)(F)F)C[C@@H]1c1cnc2cnc3[nH]ccc3n12 [upadacitinib, reference compound]
effect on IFNγ-stimulated STAT1 phosphorylation [5]: completely inhibited | effect on IL-6-stimulated STAT3 phosphorylation [6]: suppressed

deucravacitinib [BMS-986165, reference compound]
effect on IFNα-induced STAT1 phosphorylation ([18]; C838A-TYK2 expressing 22Rv1 cells): blocked | effect on IFNα-induced STAT1 phosphorylation ([18]; WT-TYK2 expressing 22Rv1 cells): blocked | effect on trans-phosphorylation of inactive JAK1-HA variants [19]: blocked JAK1 trans-phosphorylation in a C817-independent manner | effect on IFNγ-stimulated STAT1 phosphorylation [5]: Neither VVD-118313 nor the TYK2 inhibitor BMS-986165 altered | effect on IL-6-stimulated STAT3 phosphorylation [6]: suppressed | effect on GM-CSF stimulated STAT5 phosphorylation [12]: inactive | effect on JAK1 phosphorylation [20]: suppressed | effect on IL-12-STAT4 signaling [15]: inhibited

C#CCCS(=O)(=O)N1CCC(C#CC(=O)N2CCCC(c3ccc(Cl)c(Cl)c3)C2)C1 (stereo not drawn) [alkyne probe 6]
probe labeling of WT- and C810A-JAK1 [21]: reacted | probe labeling of C838A-TYK2 [22]: but not a C838A-TYK2 mutant | probe labeling of WT-TYK2 [23]: reacted
